From US20030021796A1, “Method of enhancing T cell immunity by selection of antigen specific T cells” (priority 2001, published 2003)
Entries after “also recorded” stand apart in the source; their conditions may differ.

Tests used:
transgenic CD4^+ T cells = assay: Neonatal thymus transplant under the kidney capsule of TCRα^−H2-M^−Ii^− recipients with selecting peptide; assay type: in vivo, mouse
Text: Since the selecting peptide is an agonist, in a specific embodiment of the present invention the observed phenomenon results from the expansion of a small number of peripheral transgenic CD4^+ T cells rather than from induced positive selection. To test this possibility, two types of experiments have been performed. In the first experiment, the PCC TgTCRα^−H-2M^−Ii^− mice were thymectomized and then injected with the PCC50V54A peptide. Two weeks after injection, these mice were sacrificed and the number of peripheral CD4^+ T cells was counted. […] In the second experiment, the neonatal thymi from TgTCRα^−H-2M^−Ii^− mice were transplanted under the kidney capsule of H-2M^−Ii^− TCRα^− mice, which are devoid of T cells. Two days after surgery, half of the recipient mice were injected with the selecting peptide. After 10 days, recipient mice were sacrificed and the presence of transgenic CD4^+ T cells in the transplanted thymus and lymph nodes was determined by FACS analysis. […] Apparently, CD4^+ T cells appear in the peripheral lymph nodes of PCC TgTCRα^−H-2M^−Ii^− injected with the PCC50V54A peptide as a result of positive selection by this peptide.
Peptide injections and surgical procedures. TCR^TgTCRα^− and TCR^TgTCRαH2-M^−Ii^− were injected i.p. with agonist and control peptides dissolved in PBS. After indicated time mice were sacrificed, thymus and lymph nodes were collected and single cell suspensions were prepared. Pups were injected with 2 μg of peptide subcutaneously 12-24 hours after birth and thymi were transplanted into recipient mice 24 hours after injection. […]
Since the selecting peptide is an agonist, one could argue that the observed phenomenon results from the expansion of a small number of peripheral transgenic CD4^+ T cells rather than from induced positive selection (Martin & Bevan, 1997). […] Two weeks after injection, the mice were sacrificed and the number of peripheral CD4^+ T cells was counted. […] After 10 days, recipient mice were sacrificed and the presence of transgenic CD4^+ T cells in the transplanted thymus and host lymph nodes was determined by FACS analysis. […]

lymph node cells = assay: Repopulation of peripheral lymph nodes in peptide-injected TCR^TgTCRα^−H2-M^−Ii^− mice; assay type: in vivo, mouse
Method: Flow cytometry analysis. Monoclonal antibodies specific for CD4(RM4-5), CD8(53-6.7), VβB8(F23.1), CD69(H1.2F3), CD44(IM7) and CD62L(MEL-14) were purchased from PharMingen (San Diego, Calif.) and used according to manufacturer's recommendations. Cells were analyzed using a FACSCalibur instrument (Becton Dickinson, San Jose, Calif.) and CellQuest software. For intracellular stain cells were first stained for CD4 and CD8, fixed in 2% paraformaldehyde, permeabilized in 0.1% Tween-20 and stained with anti-bcl-2 antibody (Pharmingen) according to manufacturer instruction.
Peptide injections and surgical procedures. TCR^TgTCRα^− and TCR^TgTCRαH2-M^−Ii^− were injected i.p. with agonist and control peptides dissolved in PBS. After indicated time mice were sacrificed, thymus and lymph nodes were collected and single cell suspensions were prepared. Pups were injected with 2 μg of peptide subcutaneously 12-24 hours after birth and thymi were transplanted into recipient mice 24 hours after injection. 5-8 week old TCR^TgTCRα^− H2-M^−Ii^− mice were used for thymectomy or as thymic transplant recipients. Surgical procedures were performed as described (Coligan et al., 1997). Mice were handled according with the institutional guidance.

[1] = tested on: peptide selected CD4^+ cells; assay: Antigen response (proliferation) of lymph node CD4^+ cells from peptide-injected TCR^TgTCRα^−H2-M^−Ii^− mice; assay type: cell-based, mouse
Method: Antigen response of TCR transgenic cells. Proliferation of lymph node cells isolated from TCR^TgTCRα^−and TCR^TgTCRα^−2-M^−Ii^− mice injected with the selecting peptide was measured in response to antigen. Response of the TCR^TgTCRα^− lymph node cells to different agonist peptides was measured by proliferation assay in a 96-well plate. 10^5 responder cells were stimulated with peptides presented by 5×10^5 irradiated C57BL6 splenocytes. Agonist peptides were used at concentrations of 0.01, 0.1, 0.5, 1.0, 2.5, 5.0, 10.0 and 20.0 μM. After 3 days cells were pulsed with 1 μCi of [^3H]thymidine added to each well and after 18 hours thymidine incorporation was measured. The sequences of peptides used were: PCC50V (AEGFSYTVANKNKGIT), PCC50L (AEGFSYTLANKNKGIT), PCC50V54A (AEGFSYTVANKAKGIT), PCC46A49A50V54A (AEGASYAVANKAKGIT), PCC50F54A (AEGFSYTFANKAKGIT), neutral ceramidase (AGFFQYTLYILASEG) and IgGVH (NADFKTPATLTVDKA). […] Proliferation was measured after 3 days by thymidine incorporation by pulsing cells with 1 μCi of [^3H] thymidine for 18 hours. […] For antagonism assays the percent of proliferation inhibition was calculated as 100-100*(thymidine incorporation in the presence of antagonist/thymidine incorporation in the absence of antagonist) (Lyons et al., 1996).

transgenic thymocytes = assay: Fetal thymic organ cultures (FTOC) from TgTCRα^−H-2M^−Ii^− mice with peptide; assay type: cell-based, mouse; settings: continuous delivery of peptide at low concentration
Text: The TgTCRα^−H-2M^−Ii^− system enables the visualization of thymocyte positive selection in real time and in the native intrathymic environment. An in vitro system was setup where the transgenic thymocytes undergo efficient positive selection and commit to the CD4^+ lineage. […] These observations agreed with the previous reports in which CD8^+, but not CD4+, T cells could be positively selected by the specific peptide in FTOCs (Kenty et al., 1998; Liblau et al, 1996). Therefore, neonatal thymic organ cultures (NTOC) were established from TgTCRα^−-H-2M^−Ii^− neonates. The neonates received a single i.p. injection of the PCC50V54A peptide just after birth and were sacrificed 24 hours later when their thymuses were harvested.

Sequence: AEGFSYTVANKAKGIT [PCC50V54A, analog of pigeon cytochrome C peptide PCC(43-58)]
- presence of transgenic CD4^+ T cells in transplanted thymus and host lymph nodes (transgenic CD4^+ T cells; donor neonates injected (2 μg) 24 hours before transplantation): found only in mice grafted with thymi from neonates injected with the selecting peptide; also recorded: repopulate peripheral lymph nodes
- presence of transgenic CD4^+ T cells in transplanted thymus and lymph nodes (transgenic CD4^+ T cells; recipients injected two days after surgery, analysed after 10 days): found only in thymus-grafted mice, injected with the selecting peptide
- total number of lymph node cells (transgenic CD4^+ T cells; recipients of neonatal thymi injected with the selecting peptide, two weeks after transplantation): 25.5×10^6±4.2
- CD4^+ cells in peripheral lymph nodes (lymph node cells; after i.p. injection, about two weeks): increase in the number of CD4^+ cells
- phenotype of peripheral CD4^+ cells (CD44, CD62L) (lymph node cells; mouse, in vivo): had naïve phenotype
- total number of lymph node cells (lymph node cells; two weeks after injection): 44.1×10^6±9.8
- response of peptide selected CD4^+ cells to agonist peptides in vitro [1]: functional and respond to agonist peptides; also recorded: weakly respond in vitro
- lineage commitment of thymocytes in FTOC (transgenic thymocytes): the majority of thymocytes committed to the CD8 lineage
